# Columns and labels:
# [1] = molecular target: TrkA kinase (Homo sapiens, UniProt P04629); assay: TrkA kinase biochemical activity assay (AlphaScreen); conditions: 100 μM ATP; read-out: Biochemical Inhibition IC50 TrkA
# How it was run: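 IC50 values come from AlphaScreen PY20/streptavidin bead signal versus compound concentration. Kinase reaction: 1 ng/well TrkA, 100 μM ATP, 30 nM biotin-(E4Y)10 substrate, Mn2+-containing Hepes buffer pH 7.5, 5% DMSO, 40 min, room temperature; TrkC assayed by the same approach.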
# [2] = molecular target: CYP3A4(BQ) (Homo sapiens, UniProt P08684); assay: CYP3A4(BQ) inhibition; assay type: in vitro ADME; conditions: CYP3A4, substrate BQ; read-out: Cyp IC50 3A4(BQ)
# How it was run: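 After 30 min incubation at 37° C, plates were read on a Tecan Safire 2 at 409 ex/460 em, and IC50 values came from signal plotted against compound concentration. Enzyme and substrate were sourced from BD Biosciences. The cofactor mix held 1.3% NADPH Regeneration system Solution A, 1.04% Solution B, 5% acetonitrile and 0.05% DMSO.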
# [3] = molecular target: Fms kinase (Homo sapiens, UniProt P07333); assay: Fms kinase biochemical activity assay (AlphaScreen, biotin-(E4Y)10 phosphorylation); conditions: 100 μM ATP; read-out: Biochemical Inhibition IC50 Fms
# How it was run: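 AlphaScreen read-out (PY20 acceptor, streptavidin donor beads, EDTA stop) of biotin-(E4Y)10 phosphorylation, with IC50 taken from the concentration–signal curve. Reaction: 30 nM substrate, 100 μM ATP, 1 ng/well Fms, Hepes pH 7.5 with Mg2+/Mn2+, 5% DMSO, 20 min at 30 °C.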
# [4] = molecular target: CYP2C19 (Homo sapiens, UniProt P33261); assay: CYP2C19 inhibition (fluorescent substrate CEC); assay type: in vitro ADME; conditions: read-out: Cyp IC50 2C19
# How it was run: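 Test compound titrated 1:1 across ten concentrations; metabolite fluorescence measured after 37 °C incubation of 15 min (CYP1A2), 30 min (CYP2C19, CYP2D6) or 45 min (CYP2C9). IC50 from signal versus concentration.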
# CYP2C19, sequence (P33261 whole entry): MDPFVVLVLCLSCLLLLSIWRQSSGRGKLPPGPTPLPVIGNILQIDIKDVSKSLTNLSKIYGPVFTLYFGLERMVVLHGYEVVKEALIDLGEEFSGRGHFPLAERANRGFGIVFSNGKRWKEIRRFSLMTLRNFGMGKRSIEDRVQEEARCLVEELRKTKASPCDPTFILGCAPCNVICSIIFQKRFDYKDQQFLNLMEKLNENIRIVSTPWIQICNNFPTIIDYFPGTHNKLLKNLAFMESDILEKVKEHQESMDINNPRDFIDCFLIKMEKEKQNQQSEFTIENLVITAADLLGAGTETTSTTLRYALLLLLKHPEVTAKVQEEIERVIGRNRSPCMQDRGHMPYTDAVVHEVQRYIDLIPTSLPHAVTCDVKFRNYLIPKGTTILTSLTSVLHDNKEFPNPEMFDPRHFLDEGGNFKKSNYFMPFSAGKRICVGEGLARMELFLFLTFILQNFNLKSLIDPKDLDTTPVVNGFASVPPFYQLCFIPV
# TrkA kinase, sequence (P04629 33-796): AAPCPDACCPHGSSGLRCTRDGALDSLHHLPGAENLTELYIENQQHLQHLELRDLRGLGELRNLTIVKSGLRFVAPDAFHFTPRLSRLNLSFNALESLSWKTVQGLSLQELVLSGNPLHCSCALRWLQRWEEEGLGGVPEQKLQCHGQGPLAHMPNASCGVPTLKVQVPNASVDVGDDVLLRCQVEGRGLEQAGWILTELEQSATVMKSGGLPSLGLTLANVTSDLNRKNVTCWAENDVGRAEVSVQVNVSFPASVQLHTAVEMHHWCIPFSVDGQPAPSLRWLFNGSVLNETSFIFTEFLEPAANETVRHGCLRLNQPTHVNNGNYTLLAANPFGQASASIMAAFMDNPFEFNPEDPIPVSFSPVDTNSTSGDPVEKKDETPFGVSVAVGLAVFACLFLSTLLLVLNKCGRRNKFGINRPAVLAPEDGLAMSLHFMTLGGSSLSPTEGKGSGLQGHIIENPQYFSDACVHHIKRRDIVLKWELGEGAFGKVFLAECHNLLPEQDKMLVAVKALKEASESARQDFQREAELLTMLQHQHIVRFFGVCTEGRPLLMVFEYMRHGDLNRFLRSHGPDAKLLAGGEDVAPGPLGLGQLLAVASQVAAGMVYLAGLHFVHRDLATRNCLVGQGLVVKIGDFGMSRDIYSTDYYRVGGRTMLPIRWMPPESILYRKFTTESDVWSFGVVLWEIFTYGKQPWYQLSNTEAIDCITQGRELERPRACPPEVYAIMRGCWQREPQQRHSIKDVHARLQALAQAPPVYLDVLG
# CYP3A4(BQ), sequence (P08684 whole entry): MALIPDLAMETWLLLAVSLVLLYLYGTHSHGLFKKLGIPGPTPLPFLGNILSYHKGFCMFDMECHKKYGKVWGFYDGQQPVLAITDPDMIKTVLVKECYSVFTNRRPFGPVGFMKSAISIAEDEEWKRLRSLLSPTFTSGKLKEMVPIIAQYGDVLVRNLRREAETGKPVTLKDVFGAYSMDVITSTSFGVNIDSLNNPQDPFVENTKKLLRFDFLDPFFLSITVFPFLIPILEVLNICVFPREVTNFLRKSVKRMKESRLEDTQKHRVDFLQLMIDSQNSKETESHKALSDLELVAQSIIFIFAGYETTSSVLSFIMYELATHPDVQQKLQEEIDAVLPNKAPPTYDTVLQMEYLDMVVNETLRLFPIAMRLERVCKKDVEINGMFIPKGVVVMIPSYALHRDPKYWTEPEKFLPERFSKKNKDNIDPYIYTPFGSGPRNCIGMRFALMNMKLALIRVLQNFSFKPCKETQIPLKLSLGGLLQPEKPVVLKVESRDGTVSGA
# Fms kinase, sequence (P07333 20-972): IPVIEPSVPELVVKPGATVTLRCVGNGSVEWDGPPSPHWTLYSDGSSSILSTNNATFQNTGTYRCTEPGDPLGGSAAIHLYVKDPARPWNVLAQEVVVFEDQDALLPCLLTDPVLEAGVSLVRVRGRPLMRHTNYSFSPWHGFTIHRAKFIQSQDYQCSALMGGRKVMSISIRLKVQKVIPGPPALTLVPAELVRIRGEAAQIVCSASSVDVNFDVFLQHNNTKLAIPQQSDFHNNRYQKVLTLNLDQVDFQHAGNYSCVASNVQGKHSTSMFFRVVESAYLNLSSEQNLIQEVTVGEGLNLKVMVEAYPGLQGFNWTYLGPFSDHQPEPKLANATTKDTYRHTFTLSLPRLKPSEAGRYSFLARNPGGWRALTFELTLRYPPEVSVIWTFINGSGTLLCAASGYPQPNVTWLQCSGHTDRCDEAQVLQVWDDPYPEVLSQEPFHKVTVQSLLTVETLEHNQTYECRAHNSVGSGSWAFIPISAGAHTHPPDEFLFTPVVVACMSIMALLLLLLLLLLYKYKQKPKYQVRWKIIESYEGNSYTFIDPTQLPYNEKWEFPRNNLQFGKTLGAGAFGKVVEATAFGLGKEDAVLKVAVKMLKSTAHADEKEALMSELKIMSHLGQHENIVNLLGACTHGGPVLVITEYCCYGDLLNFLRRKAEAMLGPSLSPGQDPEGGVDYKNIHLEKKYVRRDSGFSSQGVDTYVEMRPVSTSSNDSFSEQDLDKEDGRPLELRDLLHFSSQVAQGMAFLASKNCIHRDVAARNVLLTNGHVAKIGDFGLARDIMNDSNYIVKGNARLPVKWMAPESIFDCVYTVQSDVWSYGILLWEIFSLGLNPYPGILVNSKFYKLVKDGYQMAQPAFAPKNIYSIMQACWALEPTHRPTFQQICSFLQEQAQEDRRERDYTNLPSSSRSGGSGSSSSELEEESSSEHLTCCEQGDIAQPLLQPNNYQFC
IC50 [1] [µM],IC50 [2] [µM],IC50 [3] [µM],IC50 [4] [µM],SMILES
< 0.01,> 10,< 0.01,> 10,"CCc1ccc(Nc2ccc(C(=O)c3c[nH]c4ncnc(NCCOC)c34)c(F)n2)cn1 [Compound P-4119, [6-[(6-ethyl-3-pyridyl)amino]-2-fluoro-3-pyridyl]-[4-(2-methoxyethylamino)-7H-pyrrolo[2,3-d]pyrimidin-5-yl]methanone]"
< 0.1,> 10,< 0.1,5 to 10,"CCc1ccc(Nc2ccc(C(=O)c3c[nH]c4ncnc(NCC(C)C)c34)c(F)n2)cn1 [Compound P-4121, [6-[(6-ethyl-3-pyridyl)amino]-2-fluoro-3-pyridyl]-[4-(isobutylamino)-7H-pyrrolo[2,3-d]pyrimidin-5-yl]methanone]"
< 0.01,5 to 10,< 0.01,> 10,"COc1ccc(Nc2ccc(C(=O)c3c[nH]c4ncnc(NC5CC5)c34)c(F)n2)cn1 [Compound P-4126, [4-(cyclopropylamino)-7H-pyrrolo[2,3-d]pyrimidin-5-yl]-[2-fluoro-6-[(6-methoxy-3-pyridyl)amino]-3-pyridyl]methanone]"
< 0.1,< 5,< 0.1,5 to 10,"Fc1cc(Cc2c[nH]c3ncnc(NC4CC4)c23)cnc1NC1CCC(F)(F)CC1 [Compound P-4127, N-cyclopropyl-5-[[6-[(4,4-difluorocyclohexyl)amino]-5-fluoro-3-pyridyl]methyl]-7H-pyrrolo[2,3-d]pyrimidin-4-amine]"

# Second part, the molecule before the results:
SMILES,IC50 [1] [µM],IC50 [2] [µM],IC50 [3] [µM],IC50 [4] [µM]
"CCc1ccc(Nc2ccc(C(=O)c3c[nH]c4ncnc(NCC(F)(F)F)c34)c(F)n2)cn1 [Compound P-4120, [6-[(6-ethyl-3-pyridyl)amino]-2-fluoro-3-pyridyl]-[4-(2,2,2-trifluoroethylamino)-7H-pyrrolo[2,3-d]pyrimidin-5-yl]methanone]",< 0.1,> 10,< 0.1,< 5
"CCCNc1ncnc2[nH]cc(C(=O)c3ccc(Nc4ccc(CC)nc4)nc3F)c12 [Compound P-4122, [6-[(6-ethyl-3-pyridyl)amino]-2-fluoro-3-pyridyl]-[4-(propylamino)-7H-pyrrolo[2,3-d]pyrimidin-5-yl]methanone]",< 0.01,> 10,< 0.01,> 10
"CCNc1ncnc2[nH]cc(C(=O)c3ccc(Nc4ccc(CC)nc4)nc3F)c12 [Compound P-4123, [4-(ethylamino)-7H-pyrrolo[2,3-d]pyrimidin-5-yl]-[6-[(6-ethyl-3-pyridyl)amino]-2-fluoro-3-pyridyl]methanone]",< 0.01,> 10,< 0.01,> 10
"CCc1ccc(Nc2ccc(C(=O)c3c[nH]c4ncnc(NC)c34)c(F)n2)cn1 [Compound P-4124, [6-[(6-ethyl-3-pyridyl)amino]-2-fluoro-3-pyridyl]-[4-(methylamino)-7H-pyrrolo[2,3-d]pyrimidin-5-yl]methanone]",< 0.01,> 10,< 0.01,< 5
"CCc1ccc(Nc2ccc(C(=O)c3c[nH]c4ncnc(NC5CC5)c34)c(F)n2)cn1 [Compound P-4125, [4-(cyclopropylamino)-7H-pyrrolo[2,3-d]pyrimidin-5-yl]-[6-[(6-ethyl-3-pyridyl)amino]-2-fluoro-3-pyridyl]methanone]",< 0.01,> 10,< 0.1,> 10

# Source: patent publication US8901118B2, “Compounds and methods for kinase modulation, and indications therefor” (Plexxikon Inc., priority 2010, dated 2014)
